Measured values published in ChEMBL document CHEMBL3611969, “The effect of complexation of 3-formylrifamycin SV macrocyclic ether derivatives with metal cations and small nitrogen-containing organic molecules on antibacterial activity against S. aureus and S. epidermidis” (Bioorg Med Chem Lett, 2015).
In brackets after ≈: the same amount, converted by molar mass.

Assays:
[1] = system: Staphylococcus epidermidis; test: Antibacterial activity against Staphylococcus epidermidis ATCC 12228 after 18 hrs by serial microdilution method; type: functional; conditions: ATCC 12228, 18 h
[2] = system: Staphylococcus epidermidis; test: Antibacterial activity against Staphylococcus epidermidis ATCC 49134 after 18 hrs by serial microdilution method; type: functional; conditions: ATCC 49134, 18 h
Staphylococcus aureus [3] = test: Antibacterial activity against Staphylococcus aureus ATCC 25923 after 18 hrs by serial microdilution method; type: functional; conditions: ATCC 25923, 18 h
Staphylococcus aureus [4] = test: Antibacterial activity against Staphylococcus aureus ATCC 4163 after 18 hrs by serial microdilution method; type: functional; conditions: ATCC 4163, 18 h
Staphylococcus aureus [5] = test: Antibacterial activity against Staphylococcus aureus ATCC 6538 after 18 hrs by serial microdilution method; type: functional; conditions: ATCC 6538, 18 h
[6] = system: Staphylococcus epidermidis; test: Antibacterial activity against Staphylococcus epidermidis ATCC 49134 after 18 hrs by serial microdilution method in presence of isoniazid; type: functional; conditions: ATCC 49134, 18 h
[7] = system: Staphylococcus epidermidis; test: Antibacterial activity against Staphylococcus epidermidis ATCC 49134 after 18 hrs by serial microdilution method in presence of 2-chlorobenzylamine; type: functional; conditions: ATCC 49134, 18 h
Staphylococcus aureus [8] = test: Antibacterial activity against Staphylococcus aureus ATCC 4163 after 18 hrs by serial microdilution method in presence of 2-chlorobenzylamine; type: functional; conditions: ATCC 4163, 18 h
Staphylococcus aureus [9] = test: Antibacterial activity against Staphylococcus aureus ATCC 6538 after 18 hrs by serial microdilution method in presence of isoniazid; type: functional; conditions: ATCC 6538, 18 h
[10] = system: Staphylococcus epidermidis; test: Antibacterial activity against Staphylococcus epidermidis ATCC 12228 after 18 hrs by serial microdilution method in presence of histamine; type: functional; conditions: ATCC 12228, 18 h
[11] = system: Staphylococcus epidermidis; test: Antibacterial activity against Staphylococcus epidermidis ATCC 49134 after 18 hrs by serial microdilution method in presence of histamine; type: functional; conditions: ATCC 49134, 18 h
[12] = system: Staphylococcus epidermidis; test: Antibacterial activity against Staphylococcus epidermidis ATCC 12228 after 18 hrs by serial microdilution method in presence of isoniazid; type: functional; conditions: ATCC 12228, 18 h
Staphylococcus aureus [13] = test: Antibacterial activity against Staphylococcus aureus ATCC 4163 after 18 hrs by serial microdilution method in presence of 4-fluorobenzylamine; type: functional; conditions: ATCC 4163, 18 h
Staphylococcus aureus [14] = test: Antibacterial activity against Staphylococcus aureus ATCC 6538 after 18 hrs by serial microdilution method in presence of histamine; type: functional; conditions: ATCC 6538, 18 h
[15] = system: Staphylococcus epidermidis; test: Antibacterial activity against Staphylococcus epidermidis ATCC 12228 after 18 hrs by serial microdilution method in presence of 4-fluorobenzylamine; type: functional; conditions: ATCC 12228, 18 h
Staphylococcus aureus [16] = test: Antibacterial activity against Staphylococcus aureus ATCC 25923 after 18 hrs by serial microdilution method in presence of 2-chlorobenzylamine; type: functional; conditions: ATCC 25923, 18 h
Staphylococcus aureus [17] = test: Antibacterial activity against Staphylococcus aureus ATCC 25923 after 18 hrs by serial microdilution method in presence of isoniazid; type: functional; conditions: ATCC 25923, 18 h
Staphylococcus aureus [18] = test: Antibacterial activity against Staphylococcus aureus ATCC 25923 after 18 hrs by serial microdilution method in presence of histamine; type: functional; conditions: ATCC 25923, 18 h
[19] = system: Staphylococcus epidermidis; test: Antibacterial activity against Staphylococcus epidermidis ATCC 49134 after 18 hrs by serial microdilution method in presence of 4-fluorobenzylamine; type: functional; conditions: ATCC 49134, 18 h
[20] = Octanol-water partition coefficient, log P of the compound by UV-vis method; type: physicochemical
Staphylococcus aureus [21] = test: Antibacterial activity against Staphylococcus aureus ATCC 4163 after 18 hrs by serial microdilution method in presence of histamine; type: functional; conditions: ATCC 4163, 18 h
Staphylococcus aureus [22] = test: Antibacterial activity against Staphylococcus aureus ATCC 6538 after 18 hrs by serial microdilution method in presence of 2-chlorobenzylamine; type: functional; conditions: ATCC 6538, 18 h
Staphylococcus aureus [23] = test: Antibacterial activity against Staphylococcus aureus ATCC 25923 after 18 hrs by serial microdilution method in presence of 4-fluorobenzylamine; type: functional; conditions: ATCC 25923, 18 h
Staphylococcus aureus [24] = test: Antibacterial activity against Staphylococcus aureus ATCC 6538 after 18 hrs by serial microdilution method in presence of 4-fluorobenzylamine; type: functional; conditions: ATCC 6538, 18 h
Staphylococcus aureus [25] = test: Antibacterial activity against Staphylococcus aureus ATCC 4163 after 18 hrs by serial microdilution method in presence of isoniazid; type: functional; conditions: ATCC 4163, 18 h
[26] = system: Staphylococcus epidermidis; test: Antibacterial activity against Staphylococcus epidermidis ATCC 12228 after 18 hrs by serial microdilution method in presence of 2-chlorobenzylamine; type: functional; conditions: ATCC 12228, 18 h
[27] = Solubility of the compound in water at pH 7 in presence of Li+; type: physicochemical
Staphylococcus aureus [28] = test: Antibacterial activity against Staphylococcus aureus ATCC 6538 after 18 hrs by serial microdilution method in presence of Na+; type: functional; conditions: ATCC 6538, 18 h
[29] = Solubility of the compound in water at pH 7; type: physicochemical
[30] = system: Staphylococcus epidermidis; test: Antibacterial activity against Staphylococcus epidermidis ATCC 49134 after 18 hrs by serial microdilution method in presence of Na+; type: functional; conditions: ATCC 49134, 18 h
Staphylococcus aureus [31] = test: Antibacterial activity against Staphylococcus aureus ATCC 4163 after 18 hrs by serial microdilution method in presence of Na+; type: functional; conditions: ATCC 4163, 18 h
[32] = system: Staphylococcus epidermidis; test: Antibacterial activity against Staphylococcus epidermidis ATCC 49134 after 18 hrs by serial microdilution method in presence of Li+; type: functional; conditions: ATCC 49134, 18 h
[33] = Octanol-water partition coefficient, log P of the compound by UV-vis method in presence of Na+; type: physicochemical
Staphylococcus aureus [34] = test: Antibacterial activity against Staphylococcus aureus ATCC 25923 after 18 hrs by serial microdilution method in presence of Li+; type: functional; conditions: ATCC 25923, 18 h
Staphylococcus aureus [35] = test: Antibacterial activity against Staphylococcus aureus ATCC 25923 after 18 hrs by serial microdilution method in presence of Na+; type: functional; conditions: ATCC 25923, 18 h
Staphylococcus aureus [36] = test: Antibacterial activity against Staphylococcus aureus ATCC 4163 after 18 hrs by serial microdilution method in presence of Li+; type: functional; conditions: ATCC 4163, 18 h
[37] = Octanol-water partition coefficient, log P of the compound by UV-vis method in presence of Li+; type: physicochemical
[38] = system: Staphylococcus epidermidis; test: Antibacterial activity against Staphylococcus epidermidis ATCC 12228 after 18 hrs by serial microdilution method in presence of Li+; type: functional; conditions: ATCC 12228, 18 h
Staphylococcus aureus [39] = test: Antibacterial activity against Staphylococcus aureus ATCC 6538 after 18 hrs by serial microdilution method in presence of Li+; type: functional; conditions: ATCC 6538, 18 h
[40] = system: Staphylococcus epidermidis; test: Antibacterial activity against Staphylococcus epidermidis ATCC 12228 after 18 hrs by serial microdilution method in presence of Na+; type: functional; conditions: ATCC 12228, 18 h
[41] = Solubility of the compound in water at pH 7 in presence of Na+; type: physicochemical

[Li+].[O-][Cl+3]([O-])([O-])[O-]
MIC [1]: > 4 µg/mL | MIC [2]: > 4 µg/mL | MIC (Staphylococcus aureus [3]): > 4 µg/mL | MIC (Staphylococcus aureus [4]): > 4 µg/mL | MIC (Staphylococcus aureus [5]): > 4 µg/mL

CO[C@H]1/C=C/O[C@@]2(C)Oc3c(C)c(O)c4c(O)c(c(/C=N/N5CCN(C)CC5)c(O)c4c3C2=O)NC(=O)/C(C)=C\C=C\[C@H](C)[C@H](O)[C@@H](C)[C@@H](O)[C@@H](C)[C@H](OC(C)=O)[C@@H]1C [RIFAMPIN]
MIC [1]: 0.008 µg/mL (≈ 0.00972 µM) | MIC [2]: 0.008 µg/mL (≈ 0.00972 µM) | MIC (Staphylococcus aureus [3]): 0.016 µg/mL (≈ 0.0194 µM) | MIC (Staphylococcus aureus [4]): 0.016 µg/mL (≈ 0.0194 µM) | MIC (Staphylococcus aureus [5]): 0.016 µg/mL (≈ 0.0194 µM)

CO[C@H]1/C=C/O[C@@]2(C)Oc3c(C)c(O)c4c(O)c(c(CNc5ccc6c(c5)OCCOCCOCCOCCO6)c(O)c4c3C2=O)NC(=O)/C(C)=C\C=C\[C@H](C)[C@H](O)[C@@H](C)[C@@H](O)[C@@H](C)[C@H](OC(C)=O)[C@@H]1C
MIC [6]: 0.25 µg/mL | MIC [7]: 0.25 µg/mL | MIC [1]: 0.5 µg/mL (≈ 0.503 µM) | MIC [2]: 0.5 µg/mL (≈ 0.503 µM) | MIC (Staphylococcus aureus [8]): 0.5 µg/mL | MIC (Staphylococcus aureus [9]): 1 µg/mL | MIC [10]: 1.25 µg/mL | MIC (Staphylococcus aureus [3]): 2 µg/mL (≈ 2.01 µM) | MIC [11]: 0.125 µg/mL | MIC [12]: 0.25 µg/mL | MIC (Staphylococcus aureus [13]): 0.5 µg/mL | MIC (Staphylococcus aureus [14]): 0.125 µg/mL | MIC [15]: 0.25 µg/mL | MIC (Staphylococcus aureus [16]): 0.5 µg/mL | MIC (Staphylococcus aureus [17]): 1 µg/mL | MIC (Staphylococcus aureus [18]): 0.125 µg/mL | MIC [19]: 0.25 µg/mL | logP [20]: 0.2 | MIC (Staphylococcus aureus [21]): 0.125 µg/mL | MIC (Staphylococcus aureus [22]): 0.5 µg/mL | MIC (Staphylococcus aureus [23]): 0.5 µg/mL | MIC (Staphylococcus aureus [4]): 2 µg/mL (≈ 2.01 µM) | MIC (Staphylococcus aureus [24]): 0.5 µg/mL | MIC (Staphylococcus aureus [5]): 2 µg/mL (≈ 2.01 µM) | MIC (Staphylococcus aureus [25]): 1 µg/mL | MIC [26]: 0.25 µg/mL

[Na+].[O-][Cl+3]([O-])([O-])[O-] [SODIUM PERCHLORATE]
MIC [1]: > 4 µg/mL | MIC [2]: > 4 µg/mL | MIC (Staphylococcus aureus [3]): > 4 µg/mL | MIC (Staphylococcus aureus [4]): > 4 µg/mL | MIC (Staphylococcus aureus [5]): > 4 µg/mL

NNC(=O)c1ccncc1 [ISONIAZID]
MIC [1]: > 4 µg/mL | MIC [2]: > 4 µg/mL | MIC (Staphylococcus aureus [3]): > 4 µg/mL | MIC (Staphylococcus aureus [4]): > 4 µg/mL | MIC (Staphylococcus aureus [5]): > 4 µg/mL

CO[C@H]1/C=C/O[C@@]2(C)Oc3c(C)c(O)c4c(O)c(c(CNCC5COCCOCCOCCOCCOCCO5)c(O)c4c3C2=O)NC(=O)/C(C)=C\C=C\[C@H](C)[C@H](O)[C@@H](C)[C@@H](O)[C@@H](C)[C@H](OC(C)=O)[C@@H]1C (some centres not stated)
solubility [27]: 670 µg/mL | MIC [1]: 1 µg/mL (≈ 0.997 µM) | MIC [2]: 1 µg/mL (≈ 0.997 µM) | MIC (Staphylococcus aureus [28]): 2 µg/mL | solubility [29]: 1000 µg/mL (≈ 997 µM) | MIC [30]: 1 µg/mL | MIC (Staphylococcus aureus [31]): 2 µg/mL | MIC (Staphylococcus aureus [3]): 2 µg/mL (≈ 1.99 µM) | MIC [32]: 1 µg/mL | logP [33]: 1.13 | MIC (Staphylococcus aureus [34]): 2 µg/mL | MIC (Staphylococcus aureus [35]): 2 µg/mL | MIC (Staphylococcus aureus [36]): 1 µg/mL | logP [20]: 1.76 | logP [37]: 1.09 | MIC [38]: 1 µg/mL | MIC (Staphylococcus aureus [39]): 1 µg/mL | MIC [40]: 1 µg/mL | MIC (Staphylococcus aureus [4]): 1 µg/mL (≈ 0.997 µM) | MIC (Staphylococcus aureus [5]): 1 µg/mL (≈ 0.997 µM) | solubility [41]: 600 µg/mL

NCCc1c[nH]cn1 [HISTAMINE]
MIC [1]: > 4 µg/mL | MIC [2]: > 4 µg/mL | MIC (Staphylococcus aureus [3]): > 4 µg/mL | MIC (Staphylococcus aureus [4]): > 4 µg/mL | MIC (Staphylococcus aureus [5]): > 4 µg/mL

NCc1ccccc1Cl
MIC [1]: > 4 µg/mL | MIC [2]: > 4 µg/mL | MIC (Staphylococcus aureus [3]): > 4 µg/mL | MIC (Staphylococcus aureus [4]): > 4 µg/mL | MIC (Staphylococcus aureus [5]): > 4 µg/mL
